Test results as given in US20110152094A1, “Herbicidal compositions comprising flufenacet” (Bayer CropScience AG, priority 2009, published 2011).

Legend:
[1] = test system: MATCH sensitive (Matricaria chamomilla); test: Greenhouse trial, PE application on resistant biotypes (test method 8); assay type: in vivo; settings: sensitive biotype, g of AS/ha: (A) 90, (B) 1200, (A)+(B) 90 + 1200, (C) 10
Experimental: (§1) In the standard design of the test, seeds of various broad-leaved weed and weed grass biotypes (origins) were sown in a 8-13 cm diameter pot filled with natural soil of a standard field soil (loamy silt; non-sterile) and covered with a covering soil layer of about 1 cm. The pots were then cultivated in a greenhouse (12-16 h of light, temperature day 20-22° C., night 15-18° C.) until the time of application. The pots were treated on a laboratory track sprayer with spray liquors comprising the compositions according to the invention, mixtures of the prior art or components used individually. Application of the active compounds or active compound combinations formulated as WG, WP, EC or otherwise was carried out at the appropriate growth stages of the plants. The application rate for the spray application was 100-600 l of water/ha. After the treatment, the plants were returned to the greenhouses.
(§2) About 3 weeks after the application, the soil action or/and foliar action was assessed visually according to a scale of 0-100% in comparison to an untreated comparative group: 0%=no noticeable effect compared to the untreated comparative group; 100%=full effect compared to the untreated comparative group.
(§3) (notes: the term “seeds” also includes vegetative propagation forms such as, for example, rhizome pieces; abbreviations used: h light=hours of illumination, g of AS/ha=gram of active substance per hectare, l/ha=liter per hectare, S=sensitive, R=resistant) • 1. Pre-emergence action against weeds: seeds of various broad-leaved weed and weed grass biotypes (origins) were sown in a 8-13 cm diameter pot filled with natural soil of a standard field soil (loamy silt; non-sterile) and covered with a covering soil layer of about 1 cm. The pots were then cultivated in a greenhouse (12-16 h of light, temperature day 20-22° C., night 15-18° C.) until the time of application. The pots were treated at the BBCH stage 00-10 of the seeds/plants on a laboratory track sprayer with spray liquors comprising the compositions according to the invention, mixtures or components used individually, as WG, WP, EC or other formulations. The application rate for the spray application was 100-600 l of water/ha. After the treatment, the plants were returned to the greenhouses and, when required, treated with fertilizer and watered. • 2. Post-emergence action against weeds: seeds of various broad-leaved weed and weed grass biotypes (origins) were sown in a 8-13 cm diameter pot filled with natural soil of a standard field soil (loamy silt; non-sterile) and covered with a covering soil layer of about 1 cm. The pots were then cultivated in a greenhouse (12-16 h of light, temperature day 20-22° C., night 15-18° C.) until the time of application. The pots were treated at various BBCH stages between 11-25 of the seeds/plants, i.e. generally between two to three weeks after the start of the cultivation, on a laboratory track sprayer with spray liquors comprising the compositions according to the invention, mixtures or components used individually, as WG, WP, EC or other formulations. The application rate for the spray application was 100-600 l of water/ha. After the treatment, the plants were returned to the greenhouses and, when required, treated with fertilizer and watered. • 3. Selective pre-emergence action: seeds of various crop species (origins) were sown in a 8-13 cm diameter pot filled with natural soil of a standard field soil (loamy silt; non-sterile) and covered with a covering soil layer of about 1 cm. The pots were then cultivated in a greenhouse (12-16 h of light, temperature day 20-22° C., night 15-18° C.) until the time of application. The pots were treated at the BBCH stage 00-10 of the seeds/plants on a laboratory track sprayer with spray liquors comprising the compositions according to the invention, mixtures or components used individually, as WG, WP, EC or other formulations. The application rate for the spray application was 100-600 l of water/ha. […]

[2] = test system: MATCH resistant (Matricaria chamomilla); test: as above; assay type: in vivo; settings: resistant biotype, g of AS/ha: (A) 90, (B) 1200, (A)+(B) 90 + 1200, (C) 10
Experimental: as §1, §2, §3

**Q.** For `COc1nc(C)nc(NC(=O)NS(=O)(=O)c2cc(I)ccc2C(=O)O)n1` [(C) iodosulfuron, iodosulfuron], which “activity MATCH sensitive (visual assessment, scale 0-100% vs untreated)” value [1] is on record?
**A.** 100%

**Q.** What about the “activity MATCH resistant (visual assessment, scale 0-100% vs untreated)” value [2] of the same compound?
**A.** 60%
